System: GICs
Assay: Neutralization of GIC-damaging activity by addition of UDP-GlcNAc
Type: cell-based, human
Conditions: UDP-GlcNAc added after the chemical, FIG. 4
Protocol: When UDP-GlcNAc was added after the chemical was added to GIC, reduced SOX2 expression in GICs and the cytotoxic activity of Compound 8 on GICs were neutralized (FIGS. 3 and 4). SOX2 K75A in which lysine 75 involved in the binding of CRM1 and SOX2 was substituted with alanine and SOX2 S248A in which the 0-GlcNAcylation target serine 248 was substituted with alanine were prepared, thereby establishing GICs that constitutively express these SOX2 mutants and wild-type SOX2 (SOX2 wt). After treatment with Compound 8, the localization of SOX2 was examined by immunostaining using an anti-FLAG antibody, and the viability of GICs expressing these mutants was examined by MTT assay (FIG. 5). In the presence of Compound 8, SOX2 K75A was present in the nucleus and partially neutralized the cytotoxic activity of Compound 8. SOX2 S248A was not retained in the nucleus by treatment with Compound 8, and no inhibitory effect on cytotoxic activity was observed. […] The SOX2/DAPI positive rate was as follows: GIC (E6): Control: 0%, SOX2 wt: 36±5%, SOX2 K75A: 63±5%, SOX2 S248A: 18±2%; GIC (E16): Control: 0%, SOX2 wt: 22±4%, SOX2 K75A: 58±6%, SOX2 S248A: 15±3%. Error bar: ±SD. Statistical processing is t-test. *P<0.05, **P<0.01, ***P<0.001. GIC was cultured for 2 days with Compound 8 (10 μmol/L) alone or together with UDP-GlcNAc (1 mmol/L), and immunostaining was performed for SOX2 and NESTIN. […]

O=C(O)c1cc(C2CC2)cnc1Nc1ccc2c(ccn2-c2ccccc2)c1 [Compound 8, 5-cyclopropyl-2-((1-phenyl-1H-indole-5-yl)amino)nicotinic acid]
cytotoxic activity of Compound 8 on GICs when UDP-GlcNAc was added: neutralized

Reference: patent publication US20210113540A1, “TREATMENT AGENT AND PHARMACEUTICAL COMPOSITION FOR GLIOMA” (NATIONAL UNIVERSITY CORPORATION HOKKAIDO UNIVERSITY, priority 2018, published 2021)
